From ChEMBL document CHEMBL1133927, “Antimalarial t-butylperoxyamines” (Bioorg Med Chem Lett, 2001)
Active and inactive are the calls of the source. The rule behind the calls is not given here.

Experiments:
Plasmodium falciparum [1] = test: (§1) In vitro total parasite growth inhibition for chloroquine-sensitive Plasmodium falciparum FSH 14; format: functional, organism-based
Mus musculus [2] = test: Mean survival time of mice (Mus musculus) infected with Plasmodium berghei after administration of compound at the dose of 40 mg/kg; format: functional
Plasmodium falciparum [3] = test: (§2) In vitro schizont maturation inhibition for chloroquine-sensitive Plasmodium falciparum FJB D9; format: functional
Plasmodium falciparum [4] = test: as §2; format: functional, organism-based
Mus musculus [5] = test: Mean survival time of mice (Mus musculus) infected with Plasmodium berghei after administration of compound at the dose of 20 mg/kg; format: functional
Mus musculus [6] = test: In vivo antimalarial activity against Plasmodium berghei in mice (Mus musculus); Inactive; format: functional, organism-based
Plasmodium falciparum [7] = test: (§3) In vitro schizont maturation inhibition for chloroquine-sensitive Plasmodium falciparum FSH 14; format: functional, organism-based
Plasmodium falciparum [8] = test: (§4) In vitro total parasite growth inhibition for chloroquine-sensitive Plasmodium falciparum FJB D9; format: functional, organism-based
Plasmodium falciparum [9] = test: as §4; format: functional
Mus musculus [10] = test: Mean survival time of mice (Mus musculus) infected with Plasmodium berghei after administration of compound at the dose of 160 mg/kg; format: functional
Plasmodium falciparum [11] = test: as §1; format: functional
Mus musculus [12] = test: Mean survival time of mice (Mus musculus) infected with Plasmodium berghei after administration of compound at the dose of 80 mg/kg; format: functional
Plasmodium falciparum [13] = test: as §3; format: functional
Mus musculus [14] = test: In vivo antimalarial activity against Plasmodium berghei in mice (Mus musculus); In active; format: functional, organism-based
Mus musculus [15] = test: In vivo antimalarial activity against Plasmodium berghei in mice (Mus musculus); Active at 160 mg/kg; format: functional, organism-based; set-up: dose 160 mg/kg
Mus musculus [16] = test: In vivo antimalarial activity against Plasmodium berghei in mice (Mus musculus); Active from 40 mg/kg; format: functional, organism-based; set-up: dose 40 mg/kg
Mus musculus [17] = test: In vivo antimalarial activity against Plasmodium berghei in mice (Mus musculus); Active at 80 and 160 mg/kg; format: functional, organism-based; set-up: dose 160 mg/kg

| Compound | IC50 (Plasmodium falciparum [1]) [uM well-1] | Mean survival time (Mus musculus [2]) [days] | IC90 (Plasmodium falciparum [3]) [uM well-1] | IC50 (Plasmodium falciparum [4]) [uM well-1] | Mean survival time (Mus musculus [5]) [days] | Activity (Mus musculus [6]) | IC50 (Plasmodium falciparum [7]) [uM well-1] | IC50 (Plasmodium falciparum [8]) [uM well-1] | IC90 (Plasmodium falciparum [9]) [uM well-1] | Mean survival time (Mus musculus [10]) [days] | IC90 (Plasmodium falciparum [11]) [uM well-1] | Mean survival time (Mus musculus [12]) [days] | IC90 (Plasmodium falciparum [13]) [uM well-1] | Activity (Mus musculus [14]) | Activity (Mus musculus [15]) | Activity (Mus musculus [16]) | Activity (Mus musculus [17]) |
| --- | --- | --- | --- | --- | --- | --- | --- | --- | --- | --- | --- | --- | --- | --- | --- | --- | --- |
| CC(C)(C)OOCN1CCOCC1 | 0.16 | 7.6 | 2.6 | 0.058 | 6.8 | inactive | 0.064 | 0.15 | 3 | 11.4 | 2.15 | 8.8 | 2.9 |  |  |  |  |
| COC1=CC=C2[C@H]3Cc4ccc(OC)c5c4[C@@]2(CCN3COOC(C)(C)C)[C@H]1O5 | 0.45 | 40 | 0.47 | 0.135 | 5.2 |  | 0.5 | 1.8 | 6.4 | 7.2 | 5 | 6.8 | 0.92 | inactive |  |  |  |
| CCN(CC)COOC(C)(C)C | > 25 | 8.4 | >25 | > 25 | 7.2 | inactive | > 25 | > 25 | >25 | 12.2 | >25 | 9.4 | >25 |  |  |  |  |
| CC(C)=CCCC(C)CCN(CCO)COOC(C)(C)C (stereo not drawn) | 3.8 | 7.3 | >25 | 3.2 | 6.2 |  | 1.4 | 7.8 | >25 | 15 | >25 | 11.2 | >25 |  | Active |  |  |
| CC(C)(C)OOCN(C1CCCCC1)C1CCCCC1 | 5 | 8.6 | 21 | 1.5 | 7.6 |  | 2.1 | 5 | 25 | 13.4 | >25 | 9.8 | >25 |  | Active |  |  |
| CC(C)(C)OOCN1CCCC1 | > 25 | 7 | >25 | > 25 | 5.4 |  | > 25 | > 25 | >25 | 11.8 | >25 | 9.8 | >25 |  | Active |  |  |
| CC(C)(C)OOCN(Cc1ccccc1)Cc1cccs1 | 2.2 | 6.6 | 6 | 0.9 | 5.8 |  | 0.5 | 2.7 | 4.8 | 14 | 12 | 10.2 | 11.5 |  | Active |  |  |
| C[C@@H]1CC[C@H]2[C@@H](C)C(=O)O[C@@H]3O[C@@]4(C)CC[C@@H]1[C@]32OO4 [ARTEMISININ] | 0.01 |  | 0.028 | 0.01 | 10.8 |  | 0.01 | 0.015 | 0.03 |  | 0.029 |  | 0.028 |  |  | Active |  |
| CC(C)=CCCC(C)CCN(COOC(C)(C)C)Cc1ccccc1 (stereo not drawn) | 2.5 | 6.8 | 9 | 1.6 | 5.2 |  | 1.6 | 4.4 | 10 | 12.2 | 12 | 10.8 | 10 |  | Active |  |  |
| CC(C)(C)OOCN(Cc1ccccc1)Cc1ccco1 | 2.25 | 7.2 | 2.8 | 1.45 | 6.4 | inactive | 1.35 | 2.1 | 5.5 | 12 | 5.4 | 10.8 | 4.5 |  |  |  |  |
| CC(C)(C)OOCN(CCO)CCO | > 25 | 11.6 | >25 | 22 | 10.2 |  | 10 | > 25 | >25 | 14 | >25 | 12.8 | >25 |  |  |  | Active |
| CC(C)(C)OOCN1CCCCC1 | 5 | 6.6 | 22.5 | 3.6 | 5.2 | inactive | 2.9 | 5.5 | >25 | 10.2 | >25 | 8.2 | 24 |  |  |  |  |
